Experimental data: US20150368195A1, “INDOLINE COMPOUNDS FOR TREATMENT AND/OR PREVENTION OF INFLAMMATION DISEASES” (Taipei Medical University, priority 2014, published 2015)
Entries after “also recorded” stand apart in the source; their conditions may differ.

Legend:
collagen I = test: TGF-β-induced collagen I production, Western blot; format: cell-based, human; conditions: WI-38 lung fibroblasts; 1 μM pretreatment; TGF-β 10 ng/mL 24 h
Method: Western blot analysis was performed. First, WI-38 lung fibroblasts were incubated with different concentrations of MPT0E028 (0.01, 0.03, 0.1, 0.3, or 1 μM) (FIG. 10A) or MPT0G009 (0.01, 0.03, 0.1, 0.3, or 1 μM) (FIG. 10B) for 30 min before and during incubation for 2 h with TGF-β (10 ng/mL). WI-38 lung fibroblasts were incubated with 1 μM MPT0E028 and MPT0G009 for 30 min and following another incubation for 2 h with 1 U/ml thrombin (FIG. 10C) and 10 nM ET-1 (FIG. 10D). The collagen I production from WI-38 lung fibroblasts stimulated by 10 ng/mL TGF-β for 24 h was inhibited with 1 μM MPT0E028 and MPT0G009 pretreatment (FIG. 10E).
WI-38 cells, a normal human embryonic lung fibroblast cell line, were obtained from American Type Culture Collection (Manassas, Va.). […]
Western blot analyses were performed as described previously (Chen B C, Chang Y S, Kang J C, Hsu M J, Sheu J R, Chen T L, et al. Peptidoglycan induces nuclear factor-kappaB activation and cyclooxygenase-2 expression via Ras, Raf-1, and ERK in RAW 264.7 macrophages. J Biol Chem 2004; 279:20889-97). […] The immunoreactivity was detected using enhanced chemiluminescence (ECL) following the manufacturer's instructions. Quantitative data were obtained using a computing densitometer with scientific imaging systems (Kodak, Rochester, N.Y.). […]

HDAC3 [1] = test: HDAC isoform protein levels, Western blot, RA-FLS; format: cell-based; conditions: 12 or 24 h; 1 μM MPT0G009 or 30 μM SAHA
Method: Then cells were harvested and cell lysates were prepared for Western blot analysis of the indicated proteins. (FIG. 5C) RA-FLS were incubated for 1 h with or without the proteasome inhibitor, MG132 (1 μM). […] Results shown are representative of three independent experiments.

HDAC3 [2] = biological target: T1, HDAC3 (Homo sapiens, UniProt O15379); test: recombinant HDAC isoform inhibition (kit); format: biochemical; conditions: mean ± SEM, three replicates
T1 construct: purchased
T1 sequence (O15379 whole entry, species assumed, canonical isoform): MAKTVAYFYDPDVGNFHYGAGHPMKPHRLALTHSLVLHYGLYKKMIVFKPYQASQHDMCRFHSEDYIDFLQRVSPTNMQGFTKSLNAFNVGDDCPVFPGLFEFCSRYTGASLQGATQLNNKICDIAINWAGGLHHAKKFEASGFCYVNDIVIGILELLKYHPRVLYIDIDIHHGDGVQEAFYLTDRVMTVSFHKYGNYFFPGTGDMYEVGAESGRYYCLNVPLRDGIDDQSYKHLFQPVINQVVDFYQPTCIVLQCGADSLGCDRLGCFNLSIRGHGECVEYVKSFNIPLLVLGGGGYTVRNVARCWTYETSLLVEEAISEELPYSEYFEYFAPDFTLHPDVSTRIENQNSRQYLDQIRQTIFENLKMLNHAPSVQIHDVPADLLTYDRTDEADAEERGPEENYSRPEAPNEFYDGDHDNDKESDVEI
T1 sequence (Q9Y618 395-489 partner limits assumed, species assumed): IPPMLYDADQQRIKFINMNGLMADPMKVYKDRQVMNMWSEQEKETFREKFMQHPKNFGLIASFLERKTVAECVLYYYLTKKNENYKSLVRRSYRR
Description: (§1) Using kits that contained different recombinant HDAC isoforms, we evaluated the ability of MPT0G009 to inhibit HDAC-mediated deacetylation of lysine residues on the substrates that were provided.

HDAC8 = biological target: T2, HDAC8 (Homo sapiens, UniProt Q9BY41); test: recombinant HDAC isoform inhibition (kit); format: biochemical; conditions: mean ± SEM, three replicates, read-out: IC50 DHAC8
T2 construct: purchased
T2 sequence (Q9BY41 whole entry, canonical isoform): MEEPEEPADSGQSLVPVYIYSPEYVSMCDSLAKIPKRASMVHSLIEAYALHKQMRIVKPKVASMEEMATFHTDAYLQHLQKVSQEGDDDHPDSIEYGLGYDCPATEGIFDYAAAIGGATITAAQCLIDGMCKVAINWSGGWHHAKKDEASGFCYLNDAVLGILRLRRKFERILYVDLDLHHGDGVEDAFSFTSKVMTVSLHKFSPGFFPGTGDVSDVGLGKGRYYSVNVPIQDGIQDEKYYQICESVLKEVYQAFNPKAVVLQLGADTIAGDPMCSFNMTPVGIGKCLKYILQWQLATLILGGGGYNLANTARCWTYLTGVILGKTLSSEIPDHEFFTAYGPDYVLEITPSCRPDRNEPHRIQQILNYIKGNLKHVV
Description: as §1

HDAC6 = biological target: T3, HDAC6 (Homo sapiens, UniProt Q9UBN7); test: recombinant HDAC isoform inhibition (kit); format: biochemical; conditions: mean ± SEM, three replicates
T3 construct: purchased
T3 sequence (Q9UBN7 whole entry, species assumed, canonical isoform): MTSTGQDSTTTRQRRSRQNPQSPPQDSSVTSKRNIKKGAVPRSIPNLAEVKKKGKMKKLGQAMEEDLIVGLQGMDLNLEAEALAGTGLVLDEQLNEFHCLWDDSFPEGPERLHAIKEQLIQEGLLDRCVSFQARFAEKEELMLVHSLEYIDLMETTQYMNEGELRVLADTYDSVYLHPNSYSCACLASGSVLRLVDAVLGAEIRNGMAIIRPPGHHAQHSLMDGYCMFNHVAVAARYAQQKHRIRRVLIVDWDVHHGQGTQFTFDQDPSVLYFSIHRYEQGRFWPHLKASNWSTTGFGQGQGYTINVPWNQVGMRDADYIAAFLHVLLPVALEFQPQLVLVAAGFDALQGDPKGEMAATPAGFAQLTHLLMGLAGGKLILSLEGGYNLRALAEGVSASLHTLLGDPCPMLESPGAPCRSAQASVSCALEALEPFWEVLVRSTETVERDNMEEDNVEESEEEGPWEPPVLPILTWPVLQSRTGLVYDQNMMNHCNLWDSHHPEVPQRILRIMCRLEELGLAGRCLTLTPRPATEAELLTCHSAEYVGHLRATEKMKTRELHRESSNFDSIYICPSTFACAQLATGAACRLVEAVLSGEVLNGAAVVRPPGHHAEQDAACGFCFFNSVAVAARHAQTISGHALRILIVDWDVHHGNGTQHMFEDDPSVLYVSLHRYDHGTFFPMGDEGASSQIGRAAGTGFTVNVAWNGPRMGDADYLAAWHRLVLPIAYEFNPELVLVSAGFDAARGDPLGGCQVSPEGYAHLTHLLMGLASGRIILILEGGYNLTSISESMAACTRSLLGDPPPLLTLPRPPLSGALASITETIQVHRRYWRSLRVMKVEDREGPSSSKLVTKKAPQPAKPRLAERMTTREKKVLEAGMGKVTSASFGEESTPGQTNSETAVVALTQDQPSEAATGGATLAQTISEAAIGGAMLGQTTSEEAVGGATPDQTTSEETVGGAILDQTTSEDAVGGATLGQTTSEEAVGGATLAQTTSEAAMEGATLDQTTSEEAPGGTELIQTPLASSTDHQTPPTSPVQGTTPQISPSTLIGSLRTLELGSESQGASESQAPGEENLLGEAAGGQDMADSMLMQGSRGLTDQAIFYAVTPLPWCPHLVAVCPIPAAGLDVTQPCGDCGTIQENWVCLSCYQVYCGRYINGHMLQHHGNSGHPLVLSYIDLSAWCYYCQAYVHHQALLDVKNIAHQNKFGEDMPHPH
Description: as §1

HDAC2 = biological target: T4, HDAC2 (Homo sapiens, UniProt Q92769); test: recombinant HDAC isoform inhibition (kit); format: biochemical; conditions: mean ± SEM, three replicates
T4 construct: purchased
T4 sequence (Q92769 whole entry, species assumed, canonical isoform): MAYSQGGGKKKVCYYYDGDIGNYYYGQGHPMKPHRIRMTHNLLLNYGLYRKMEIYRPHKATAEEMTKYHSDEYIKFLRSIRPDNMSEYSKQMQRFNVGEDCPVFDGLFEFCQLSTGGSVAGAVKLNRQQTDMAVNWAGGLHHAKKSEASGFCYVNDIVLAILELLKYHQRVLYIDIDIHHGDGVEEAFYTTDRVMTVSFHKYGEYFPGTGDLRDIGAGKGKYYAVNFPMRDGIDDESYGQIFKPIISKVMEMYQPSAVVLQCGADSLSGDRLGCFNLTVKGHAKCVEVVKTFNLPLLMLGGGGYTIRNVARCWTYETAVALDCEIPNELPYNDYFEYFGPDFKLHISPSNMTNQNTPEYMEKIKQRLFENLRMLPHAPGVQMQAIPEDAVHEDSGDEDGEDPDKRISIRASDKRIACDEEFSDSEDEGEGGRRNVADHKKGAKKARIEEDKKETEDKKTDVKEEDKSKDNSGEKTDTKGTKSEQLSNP
Description: as §1

HDAC1 = biological target: T5, HDAC1 (Homo sapiens, UniProt Q13547); test: recombinant HDAC isoform inhibition (kit); format: biochemical; conditions: mean ± SEM, three replicates
T5 construct: purchased
T5 sequence (Q13547 whole entry, species assumed, canonical isoform): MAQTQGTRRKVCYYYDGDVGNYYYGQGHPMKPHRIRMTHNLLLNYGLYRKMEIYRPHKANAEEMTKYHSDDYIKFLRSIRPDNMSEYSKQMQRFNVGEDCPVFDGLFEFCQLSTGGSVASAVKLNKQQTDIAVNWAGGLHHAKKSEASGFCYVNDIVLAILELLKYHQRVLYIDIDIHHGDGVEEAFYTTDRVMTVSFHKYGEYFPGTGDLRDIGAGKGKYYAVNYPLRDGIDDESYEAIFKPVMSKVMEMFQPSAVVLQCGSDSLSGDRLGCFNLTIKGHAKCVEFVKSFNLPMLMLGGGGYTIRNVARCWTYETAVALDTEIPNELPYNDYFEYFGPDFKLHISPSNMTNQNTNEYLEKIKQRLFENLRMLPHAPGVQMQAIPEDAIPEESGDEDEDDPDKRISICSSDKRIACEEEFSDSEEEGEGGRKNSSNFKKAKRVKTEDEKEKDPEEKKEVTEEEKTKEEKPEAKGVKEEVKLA
Description: as §1

p21 = p21 expression by flow cytometry or western blot in RA-FLS; format: cell-based; conditions: 24 h, 1 μM MPT0G009 or 3 μM SAHA
Description: (FIG. 1A) Structure of MPT0G009. […] Results in (FIGS. 1B-E) and (FIG. 1G) are means±SEM's for three independent experiments, *p<0.05 and **p<0.01 compared with no added inhibitor.

[3] = system: carrageenan-induced hind paw edema; test: carrageenan-induced hind paw edema
Method: A 0.5% (w/v) suspension of carrageenan in normal saline was administered to male Wistar rats (7-weeks) by intradermal injection into the base of the right hind paw. […] A positive control group was included in which rats were pretreated with 5 mg/kg Indomethacin. […] The results are expressed as the mean±SEM, with n=5. *p<0.05 compared to the control group; #p<0.05 for the comparison of the indicated groups.
Animals were divided into four groups (n=5). 0.5% (w/v) suspension of carrageenan in normal saline was administered to male Wistar rats (7-weeks) by intradermal injection into the base of the right hind paw. […] A positive control group was included in which rats were pretreated with 5 mg/kg Indomethacin. Three hours after carrageenan administration, the thickness and volume of the right hind paw were measured by digital caliper and digital plethysmometer (Diagnostic & Research Instruments CO., Ltd, Taipei, Taiwan), respectively.

[4] = maximum tolerated dose (MTD); format: in vivo; conditions: for Lethality / Change of body weight Day 7 / Change of body weight Day 14 / Change of body weight Day 21: qd × 7; for Change of body weight Day 7 / Change of body weight Day 14 / Change of body weight Day 21: mean ± SEM
[5] = system: adjuvant-induced arthritis; test: adjuvant-induced arthritis (AIA) model; conditions: MPT0G009 25 mg/kg
Method: (FIG. 8B) Hind paw volumes in the indicated group of rats were measured using a digital plethysmometer on the indicated day after AIA induction. […] (FIG. 8D) Serum levels of interleukin (IL)-1β (left panel) and IL-6 (right panel) on day 21 as measured by enzyme-linked immunosorbent assay (ELISA). […] (FIG. 8F) The bone mineral density (BMD, in mg/mm^3) and the bone mineral content (BMC, in mg) values for the bone tissue of the tarsus were analyzed using CT Analysis Software.

[6] = day 21, ELISA, SAHA 200 mg/kg, indomethacin 1 mg/kg
[7] = oral daily days 2 to 21, SAHA 200 mg/kg, indomethacin 1 mg/kg, vs vehicle

SMILES: COc1ccc(S(=O)(=O)N2CCc3cc(C=CC(=O)NO)ccc32)cc1 [Compound 9, 3-[1-(4-methoxybenzenesulfonyl)-2,3-dihydro-1H-indol-5-yl]-N-Hydroxyacrylamide]
- collagen I production (collagen I): inhibited
- levels of HDAC3 in RA-FLS (HDAC3 [1]): decreased levels of HDAC3
- IC50 (HDAC3 [2]): 1.91 nM
- IC50 (HDAC8): 22.5 nM
- IC50 (HDAC6): 8.43 ± 0.72 nM
- IC50 (HDAC2): 5.16 ± 0.76 nM
- IC50 (HDAC1): 4.62 ± 0.81 nM
- expression of p21 (p21): significantly increased
- paw thickness reduced compared to control ([3]; compound 9 25 mg/kg oral, 3 h after carrageenan): 21.3%
- carrageenan-induced hind paw edema ([3]; oral, 1 h before carrageenan, compound 9 25 mg/kg, SAHA 200 mg/kg, Indomethacin 5 mg/kg, measured 3 h after): significantly inhibited; also recorded: suppress
- Lethality ([4]; 250 mg/kg po): 0%
- Change of body weight Day 7 ([4]; 250 mg/kg po): +8.7 ± 0.5%
- Change of body weight Day 14 ([4]; 250 mg/kg po): +17.0 ± 0.4%
- Change of body weight Day 21 ([4]; 250 mg/kg po): +22.6 ± 0.6%
- Lethality ([4]; 500 mg/kg po): 0%
- Change of body weight Day 7 ([4]; 500 mg/kg po): +1.6 ± 0.3%
- Change of body weight Day 14 ([4]; 500 mg/kg po): +16.5 ± 0.6%
- Change of body weight Day 21 ([4]; 500 mg/kg po): +24.0 ± 0.9%
- Lethality ([4]; 1000 mg/kg po): 0%
- Change of body weight Day 7 ([4]; 1000 mg/kg po): +4.4 ± 0.6%
- Change of body weight Day 14 ([4]; 1000 mg/kg po): +12.0 ± 0.7%
- Change of body weight Day 21 ([4]; 1000 mg/kg po): +15.3 ± 0.8%
- adverse effects ([4]; mice, dosage of up to 1000 mg/kg/day, within three weeks): No significant adverse effects
- bone destruction (micro-computed tomography) [5]: ameliorated
- bone mineral density (BMD) and bone mineral content (BMC) [5]: prevented the decrease
- cartilage degradation (safranin O staining of ankle joints) [5]: markedly reduced
- decrease of osteoblasts [5]: apparently ameliorated
- formation of osteoclasts (TRAP stain) [5]: significantly decreased
- leukocyte infiltration, synovitis (hematoxylin and eosin staining) [5]: significantly reduced
- levels of acetyl-histone H3 (immunohistochemical staining) [5]: increased levels
- synoviocytes proliferation and inflammation (KI-67, COX-2 staining) ([5]; 25 mg/kg): inhibition; also recorded: suppresses
- serum levels of IL-1β [5, 6]: significant decreases
- serum levels of IL-6 [5, 6]: significant decreases
- arthritis scores ([5]; day 21, SAHA 200 mg/kg, indomethacin 1 mg/kg, vs vehicle): significant reductions
- paw swelling [5, 7]: significant reductions
- paw volume [5, 7]: significant reductions
